Tested on: SEM cells
Test: cell viability relative to DMSO control; higher = less cytotoxic
Settings: 48 h
In short: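 Library compounds in DMSO were pin-dosed in an 11-point threefold series (47 μM to 0.79 nM) onto leukemia cells in 1536-well plates (5 μl). Plates held 500 cells/well of NOMO1 or SEM or 1000 cells/well of P12-Ichikawa, each adapted for at least four passages in each medium. Luminescence was read with CellTiter-Glo One after 48 h at 37°C. Viability means the per-plate percentage relative to DMSO wells, using cell-free wells as background.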

[1] = HPLM + 10% dialyzed FBS, 0.000781 µM
[2] = HPLM + 10% dialyzed FBS, 0.00234 µM
[3] = HPLM + 10% dialyzed FBS, 0.00702 µM
[4] = HPLM + 10% dialyzed FBS, 0.0211 µM
[5] = HPLM + 10% dialyzed FBS, 0.0632 µM
[6] = HPLM + 10% dialyzed FBS, 0.19 µM
[7] = HPLM + 10% dialyzed FBS, 0.569 µM
[8] = HPLM + 10% dialyzed FBS, 1.71 µM
[9] = HPLM + 10% dialyzed FBS, 5.12 µM
[10] = HPLM + 10% dialyzed FBS, 15.4 µM
[11] = HPLM + 10% dialyzed FBS, 46.1 µM
[12] = RPMI 5 mM glucose + 10% FBS, 0.000781 µM
[13] = RPMI 5 mM glucose + 10% FBS, 0.00234 µM
[14] = RPMI 5 mM glucose + 10% FBS, 0.00702 µM
[15] = RPMI 5 mM glucose + 10% FBS, 0.0211 µM
[16] = RPMI 5 mM glucose + 10% FBS, 0.0632 µM
[17] = RPMI 5 mM glucose + 10% FBS, 0.19 µM
[18] = RPMI 5 mM glucose + 10% FBS, 0.569 µM
[19] = RPMI 5 mM glucose + 10% FBS, 1.71 µM
[20] = RPMI 5 mM glucose + 10% FBS, 5.12 µM
[21] = RPMI 5 mM glucose + 10% FBS, 15.4 µM
[22] = RPMI 5 mM glucose + 10% FBS, 46.1 µM
[23] = RPMI 5 mM glucose + 10% dialyzed FBS, 0.000781 µM
[24] = RPMI 5 mM glucose + 10% dialyzed FBS, 0.00234 µM
[25] = RPMI 5 mM glucose + 10% dialyzed FBS, 0.00702 µM
[26] = RPMI 5 mM glucose + 10% dialyzed FBS, 0.0211 µM
[27] = RPMI 5 mM glucose + 10% dialyzed FBS, 0.0632 µM
[28] = RPMI 5 mM glucose + 10% dialyzed FBS, 0.19 µM
[29] = RPMI 5 mM glucose + 10% dialyzed FBS, 0.569 µM
[30] = RPMI 5 mM glucose + 10% dialyzed FBS, 1.71 µM
[31] = RPMI 5 mM glucose + 10% dialyzed FBS, 5.12 µM
[32] = RPMI 5 mM glucose + 10% dialyzed FBS, 15.4 µM
[33] = RPMI 5 mM glucose + 10% dialyzed FBS, 46.1 µM

SMILES	cell viability [1]	cell viability [2]	cell viability [3]	cell viability [4]	cell viability [5]	cell viability [6]	cell viability [7]	cell viability [8]	cell viability [9]	cell viability [10]	cell viability [11]	cell viability [12]	cell viability [13]	cell viability [14]	cell viability [15]	cell viability [16]	cell viability [17]	cell viability [18]	cell viability [19]	cell viability [20]	cell viability [21]	cell viability [22]	cell viability [23]	cell viability [24]	cell viability [25]	cell viability [26]	cell viability [27]	cell viability [28]	cell viability [29]	cell viability [30]	cell viability [31]	cell viability [32]	cell viability [33]
c1cc(OCCN2CCCCC2)cc(-c2n[nH]c3ccc(-c4nc[nH]n4)cc23)c1	109%	102%	113%	107%	120%	105%	82.8%	57.6%	99.9%	87.8%	60.4%	95.9%	99.9%	104%	97.8%	107%	110%	90.6%	54.4%	97.3%	92.1%	47.6%	83.9%	105%	99.3%	119%	126%	107%	103%	48.8%	89.4%	76.7%	53.7%
CCCCc1oc2ccc(NS(C)(=O)=O)cc2c1C(=O)c1ccc(OCCCN(CCCC)CCCC)cc1	62.8%	66%	80.9%	87.6%	92.6%	86.6%	101%	98.7%	70.2%	78.6%	8.35%	88.9%	87.5%	98.2%	109%	95.6%	92.6%	101%	108%	96.3%	94.1%	14.9%	94.8%	94.1%	98.4%	108%	107%	99.3%	100%	109%	97%	94.7%	6.45%
COc1cc2ncnc(Nc3ccc(F)c(Cl)c3)c2cc1OCCCN1CCOCC1	118%	113%	123%	103%	123%	112%	107%	102%	86.8%	48.5%	10.9%	–	–	–	–	–	–	–	–	–	–	–	105%	119%	125%	102%	125%	118%	123%	108%	78.1%	82%	31.9%
CC1(C)O[C@H]2CC(=O)OC[C@]23[C@H]2CC[C@@]4(C)[C@H](c5ccoc5)OC(=O)[C@H]5O[C@]54[C@]2(C)C(=O)C[C@@H]13	84.1%	86.8%	95.3%	96.2%	108%	106%	104%	105%	96.7%	89.4%	98.7%	83.8%	98.8%	98.4%	88.8%	99.2%	86%	105%	88.2%	96.5%	85.2%	93.2%	74.6%	102%	97.5%	83.1%	99%	90%	109%	76.6%	84.8%	102%	90%
O=C(C1CCCCC1)N1CC(=O)N2CCc3ccccc3C2C1 (stereo not drawn)	90.6%	98.8%	117%	108%	113%	96%	97.1%	86.1%	78.2%	84.1%	75.8%	99.9%	109%	126%	105%	116%	95.8%	91.6%	74.3%	66.7%	75.1%	78.4%	106%	110%	147%	99.1%	133%	132%	103%	77.9%	75%	74.8%	73.1%
O=C(c1ccc(F)cc1)C1CCN(CCn2c(=O)[nH]c3ccccc3c2=O)CC1	97.6%	103%	112%	101%	101%	98.5%	119%	109%	104%	95.7%	93%	118%	121%	126%	126%	106%	120%	120%	119%	119%	125%	116%	–	–	–	–	–	–	–	–	–	–	–
CN[C@@H](C)C(=O)N[C@H]1CCCC[C@H]2CC[C@@H](C(=O)N[C@@H](c3ccccc3)c3cn(CCCCc4ccc(CCCCn5cc([C@@H](NC(=O)[C@@H]6CC[C@@H]7CCCC[C@H](NC(=O)[C@H](C)NC)C(=O)N76)c6ccccc6)nn5)cc4)nn3)N2C1=O	73.5%	96.1%	90.5%	100%	90.5%	89.2%	88.1%	91%	92.2%	103%	69.2%	90.3%	97.9%	94.9%	95.6%	83.4%	89.5%	82.2%	87.2%	94.8%	85%	35.3%	95.8%	90.5%	82%	95.2%	99.4%	86.8%	82.3%	95.3%	82.4%	84.4%	54.4%
O=C1c2cccc(O)c2C(=O)c2c(O)cc(CO)cc21	101%	97.7%	107%	119%	111%	34%	110%	105%	102%	97.4%	109%	105%	103%	99.9%	110%	93%	45%	101%	84.2%	92.3%	103%	103%	102%	97.2%	100%	91.7%	91.2%	45.1%	85.9%	86.4%	94.2%	92.6%	85.3%
Clc1ccc(COC(Cn2ccnc2)c2ccc(Cl)cc2Cl)cc1 (stereo not drawn)	72.9%	82.3%	89.9%	97.2%	83.6%	84.7%	80.8%	88.9%	92.5%	87.9%	80.5%	116%	110%	121%	114%	119%	102%	119%	107%	113%	107%	82%	76.8%	78.8%	113%	85%	92.2%	88.7%	111%	94.2%	101%	79.7%	74.5%
C[C@@H]1CN(CC(=O)N2CC(C)(C)c3ncc(Cc4ccc(F)cc4)cc32)[C@@H](CN2CCOC[C@H]2C)CN1	83.8%	105%	48%	115%	105%	95.2%	113%	85%	105%	104%	73%	76.3%	96.3%	30.4%	104%	92.5%	88.9%	97.8%	89.2%	110%	80.4%	54.9%	86.9%	116%	40.8%	117%	103%	114%	111%	104%	111%	94.5%	75.6%
c1ccc2c(-c3cnn4cc(-c5ccc(N6CCNCC6)cc5)cnc34)ccnc2c1	75.6%	78.2%	121%	125%	139%	130%	122%	100%	2.9%	1.26%	2.65%	84%	71.6%	140%	138%	153%	122%	121%	97.1%	61%	7.66%	3.32%	69%	72.2%	118%	147%	151%	142%	114%	89.2%	66.7%	45.9%	3.66%
N/C(=N\C(=O)c1nc(Cl)c(N)nc1N)NCc1ccccc1	74.5%	91.8%	92.9%	106%	91.3%	94.6%	113%	102%	98.8%	85%	77.2%	76.4%	91.1%	95.2%	94.3%	83.8%	96.5%	84.3%	97.3%	94.6%	62.3%	43.5%	91%	103%	94%	102%	81.6%	99.8%	94.2%	99.5%	90.8%	76.2%	59.7%
CN1C(=O)COc2c(C(=O)NC3CN4CCC3CC4)cc(Cl)cc21 (stereo not drawn)	114%	112%	119%	100%	116%	101%	118%	101%	112%	105%	101%	91.7%	93.7%	94%	96.6%	104%	95.7%	109%	90.6%	88.5%	95.5%	84.9%	116%	120%	125%	122%	118%	126%	107%	109%	97.6%	131%	124%
Cc1cnc(Nc2ccc(OCCN3CCCC3)cc2)nc1Nc1cccc([S+](=O)([O-])NC(C)(C)C)c1	83.6%	93.2%	93.9%	88.2%	96.3%	89.5%	96.7%	102%	96.1%	68.2%	67.2%	88.9%	95.8%	95.4%	111%	104%	106%	108%	88.5%	89.9%	90.1%	77.2%	83.5%	97.3%	98.8%	106%	98.2%	99.2%	106%	98.1%	82.4%	84.5%	71.9%
CC1(C)OC/2=C(\[C@H](NCC3=CC=CC=C3)[C@@H]1O)C(=O)C4=CC=CC=C4C2=O	103%	95.6%	91%	115%	98.4%	111%	106%	110%	83.6%	41.1%	9.15%	80.9%	71.7%	98.4%	83.9%	94.1%	91.9%	108%	99.7%	54.2%	24.5%	5.4%	96.8%	74.4%	109%	97.7%	94.4%	106%	109%	92.5%	83.4%	48.1%	8.42%
